Where “and” joins values, the source holds several entries; their conditions need not be identical. Identical values can stand only once. Inconclusive results are not listed. Calls of active or inactive are those of the source.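 Rule for the calls: active = fitted half-maximal concentration of signal decrease at or below twice the sample's top tested concentration; inconclusive = flat curve between -70 and -30 percent, or poor fit; inactive = flat within 30 percent, signal rise, or potency above limit.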 Starred links: 1 amine or outer side, 2 acyl side, 3 side chain; linkers in the order of their positions; H or OH if unused. Positions of bridges follow the written chain, without caps; N, C: chain ends. Non-standard residues stand in square brackets, D forms with d. Residues, ends and D or L forms follow the SMILES beside them. ξ: configuration not given here. *: point of attachment. pTerphenylCO(4''-OnC5H11) = CCCCCOc1ccc(-c2ccc(-c3ccc(C(=O)*)cc3)cc2)cc1; ξOrn(4,5-diOH) = O=C(C(CC(O)C(O)N[*:3])N[*:1])[*:2]; ξhTyr(βξ-OH,γξ-OH) = NC(C(=O)O)C(O)C(O)c1ccc(O)cc1; ξPro(3ξ-OH,4ξ-Me) = CC1CNC(C(=O)O)C1O; Heptanoyl(6-Me) = CC(C)CCCCC(=O)*; Hyp = O=C(O)[CH]1C[CH](O)CN1; ξDab = NCCC(N)C(=O)O; ξT = CC(O)C(N)C(=O)O

This experiment has as its target T. gondii ME49Luc in IFN-y HeLa, luciferase, 72 h. The experiment in a line: inhibitors of Toxoplasma growth in IFN-γ-primed HeLa – cell-based, ME49Luc, luciferase, 72 h, dose response (AID 1259418).
Usually AC50 stands for the concentration at which the activity in the assay is half-maximal. In the case of `N#Cc1cccc(-c2ccc(C3[C@@H]4CN(C(=O)c5ccc6c(c5)OCO6)C[C@H]3N4)cc2)c1` (some centres not stated), the AC50 was 14.5 µM and 9.62 µM.
As for `CN1C(=O)CCc2cc(NC(=O)C(F)(F)F)ccc21`, the figure is 17.1 µM; as for `CC(C)CCCCC(=O)NC(CCN)C(=O)NC(C(=O)NC(CCN)C(=O)NC1CCNC(=O)C(C(C)O)NC(=O)C(CCN)NC(=O)C(CCN)NC(=O)[C@H](CC(C)C)NC(=O)[C@@H](CC(C)C)NC(=O)C(CCN)NC1=O)C(C)O` (stereo partly drawn) ({Heptanoyl(6-Me)}-[ξDab][ξT][ξDab][ξDab][ξDab][dL]L[ξDab][ξDab][ξT]; lactam 4-C), 18.3 µM; as for `C[C@H](NC(=O)C[C@H]1CC[C@@H]2[C@@H](COc3ccc(NS(=O)(=O)c4ccc(Cl)cc4)cc3C(=O)N2C)O1)c1ccccc1`, 11.1 µM and 18.1 µM.
As for `O=C(c1cccn2c(-c3ccc(F)cc3)nnc12)N1CCC(O)(c2ccc(Cl)cc2)CC1`, the figure is 25.4 µM; as for `CCc1ccc(S(=O)(=O)N2CCC3(CC2)NCCN=C3NCc2ccc(C)cc2)cc1`, 8.88 µM; as for `COc1ccc2c(c1)NC1(CCN(C(=O)C3CCCCC3)CC1)c1cccn1-2`, > 39 µM (inactive).
To `Cc1ccsc1C(=O)N1CCc2nc(N3CCOCC3)nc(NC(C)C)c2C1` belongs > 39 µM (inactive); to `O=S(=O)(c1ccc2c(c1)CCCC2)N1CCC2(CC1)NCCN=C2NC1CCCCC1`, 11.7 µM.
On to `O=C(Nc1cccc(F)c1)N1CCCCN2[C@H](CO)[C@H](c3ccc(C#Cc4cccnc4)cc3)[C@@H]2C1`, for which the AC50 was 2.07 µM and 1.05 µM.
To `O=C1CNC[C@H]2[C@@H](c3ccc(C#Cc4cccnc4)cc3)[C@@H](CO)N12` belongs 26.8 µM; to `CC(C)CC#Cc1ccc([C@@H]2[C@H](CO)N3C(=O)CN(C(=O)c4cccc(F)c4)C[C@@H]23)cc1`, 18.2 µM; to `O=S(=O)(c1ccc(Cl)s1)N1CCC2(CC1)NCCN=C2NCc1ccccc1F`, 17.9 µM.
As for `O=C(Nc1cccc(F)c1)N1CCCCN2[C@H](CO)[C@@H](c3ccc(C#Cc4cccnc4)cc3)[C@H]2C1`, the figure is 19.1 µM.
Take `Cc1ccccc1N(Cc1nc(-c2ccccc2)oc1C)S(=O)(=O)c1cccs1`: the AC50 was > 39 µM (inactive).
To `O=C(Cc1cccnc1)N1CC(=O)N2[C@H](C1)[C@@H](c1ccc(/C=C/c3ccccc3)cc1)[C@@H]2CO` belongs 19.8 µM.
With `Cc1ccccc1S(=O)(=O)N1C[C@@H]2N[C@H](C1)C2c1ccc(/C=C/c2ccccc2)cc1` (some centres not stated), the AC50 is 9.34 µM.
In the case of `COc1cc(NC(=O)Nc2ccc(-c3nc(-c4cc(C)ccc4C)co3)cc2)cc(OC)c1`, the AC50 was 9.46 µM.
To `Cc1ccc2c(c1C)-n1cccc1C1(CCN(C(=O)c3ccccc3F)CC1)N2` belongs > 39 µM (inactive).
Take `Cc1ccc(CNC2=NCCNC23CCN(S(=O)(=O)c2ccc(CC(C)C)cc2)CC3)cc1`: the AC50 is 7.71 µM.
To `COc1ccc(-c2nc3c(s2)CN(S(=O)(=O)c2ccccc2C)CC3)cc1` belongs 6.3 µM and 8.21 µM; to `C(=C\c1ccc(C2[C@@H]3CN(Cc4nccs4)C[C@H]2N3)cc1)/c1ccccc1` (some centres not stated), 17.1 µM.
As for `O=C(CCn1c2c(c3ccccc31)CCCC2)N1CCC(c2ccncc2)CC1`, the figure is 15.3 µM; as for `COc1ccc(C#Cc2ccc([C@H]3[C@H]4CN(C(=O)NC(C)C)CC(=O)N4[C@H]3CO)cc2)cc1`, 18.5 µM.
As for `Clc1ccccc1-c1nc(NCCCN2CCN(c3ccccc3)CC2)c2ccccc2n1`, the figure is > 39 µM (inactive); as for `Cc1ccc(CNC2=NCCNC23CCN(S(=O)(=O)c2ccc4c(c2)CCCC4)CC3)cc1`, 19.4 µM; as for `Cc1ccn(CCNc2nccc(-c3c(C)nn(C)c3C)n2)n1`, 18.8 µM.
For the molecule `COc1ccc(-c2ccc3c(c2)[C@@H]2[C@@H](CCN2C(=O)c2cccc(F)c2)[C@H](CO)N3)cc1`, the AC50 was 26.9 µM.
On to `COCC(=O)N1[C@H](C#N)[C@H](c2ccc(C#Cc3ccccc3F)cc2)[C@@H]1CO`, for which the AC50 is > 39 µM (inactive).
To `O=C(CC1N=C2c3ccccc3N=C(SCc3ccc(F)cc3)N2C1=O)NCc1ccco1` (configuration not stated) belongs 20.5 µM; to `COc1ccc(-c2nc(CN(c3ccccc3OC)S(=O)(=O)c3cccs3)c(C)o2)cc1`, 13.7 µM; to `Cc1ccc2c(c1)c1ncn(Cc3nc(C(C)C)no3)c(=O)c1n2CC(=O)N1CCCC1`, 14.5 µM.
To `COc1ccccc1CNC(=O)CC1N=C2c3ccccc3N=C(SCc3cc(=O)n4cc(Cl)ccc4n3)N2C1=O` (configuration not stated) belongs 29.6 µM.
As for `COc1cccc(NC(=O)Nc2ccc(-c3nc(-c4ccc(C)cc4C)co3)cc2)c1`, the figure is > 39 µM (inactive); as for `COc1ccc(N(Cc2nc(-c3ccccc3)oc2C)S(=O)(=O)c2ccccc2C)cc1`, 11.6 µM.
Regarding `COc1cccc(NC(=O)N2CC(=O)N3[C@H](C2)[C@@H](c2ccc(C#CCC4CCCC4)cc2)[C@@H]3CO)c1`, the AC50 is 17 µM and 3.35 µM.
In the case of `Cc1cc(C2CCCN2Cc2cn(C(C)C)c3ccccc23)no1` (configuration not stated), the AC50 was 35.1 µM.
As for `N#Cc1ccc(-c2ccc([C@@H]3[C@@H](CO)N4C(=O)CNC[C@H]34)cc2)cc1`, the figure is 11.8 µM.
To `CN1C(=O)c2cc(NC(=O)c3cccc(F)c3)ccc2OC[C@H]2O[C@@H](CC(=O)NCC3CCCCC3)CC[C@H]21` belongs 18.6 µM and 10.5 µM and 24.5 µM; to `N#C[C@H]1N[C@@H](CO)[C@@H]1c1ccc(C#CC2CCCCC2)cc1`, 19.1 µM.
Regarding `O=C(NCc1cccnc1)C1CCN(Cc2cc3ccccc3n2Cc2ccc(F)cc2)CC1`, the AC50 was 38.3 µM.
Take `Clc1ccccc1CSc1nc(NCc2ccccc2)c2ccccc2n1`: the AC50 is > 39 µM (inactive).
For the molecule `CCc1cc(C2CCCN2C(=O)c2cc(C(F)(F)F)nn2C)on1` (configuration not stated), the AC50 is > 39 µM (inactive).
`CCOc1ccc(-c2nc(CN3CCN(C(=O)NC4CCCC4)CC3)c(C)o2)cc1`: the AC50 was 29.5 µM.
As for `COc1ccc(-c2nc(NCCN(C)C3CCCCC3)c3ccccc3n2)cc1`, the figure is 3.36 µM; as for `C[C@H](CO)N1C[C@H](C)[C@H](CN(C)C(=O)c2cc(Cl)cc(Cl)c2)OCc2ccccc2-c2c(n(C)c3ccccc23)C1=O`, 9.22 µM; as for `Cc1oc(-c2cccc(Cl)c2)nc1CN1CCN(C(=O)Nc2ccc(Cl)cc2)CC1`, 22.4 µM.
On to `CCCCCOc1ccc(-c2ccc(-c3ccc(C(=O)NC4CC(O)C(O)NC(=O)C5C(O)C(C)CN5C(=O)C(C(C)O)NC(=O)C(C(O)C(O)c5ccc(O)cc5)NC(=O)C5CC(O)CN5C(=O)C(C(C)O)NC4=O)cc3)cc2)cc1` (stereo not drawn) ({pTerphenylCO(4''-OnC5H11)}-[ξOrn(4,5-diOH)]T[Hyp][ξhTyr(βξ-OH,γξ-OH)]T[ξPro(3ξ-OH,4ξ-Me)]; lactam 1-C; configuration not given here), for which the AC50 was 25 µM.
To `COc1cccc(-c2nc3c(s2)CN(S(=O)(=O)c2cc(C)ccc2C)CC3)c1` belongs 6.71 µM and 7.85 µM.
Consider `Cc1sc2ncnc(Oc3ccc(OCc4ccccc4)cc3)c2c1C`, for which the AC50 was 7.63 µM and 8.8 µM.
As for `COC[C@]12CCC[C@@H]1CN(S(=O)(=O)c1cccc(OC)c1)C2`, the figure is 36.2 µM; as for `COc1ccccc1-c1noc(-c2nnn(Cc3nc(-c4ccccc4OC)oc3C)c2C)n1`, > 39 µM (inactive).
As for `Cc1nc(CCNC(=O)C2CCN(S(=O)(=O)c3ccc(C(C)(C)C)cc3)CC2)cs1`, the figure is 31.4 µM; as for `O=C(Cc1cccnc1)N1CC(=O)N2[C@@H](CO)[C@H](c3ccc(C4=CCCCC4)cc3)[C@@H]2C1`, > 39 µM (inactive); as for `COCC1CN(C(=O)c2ccccc2F)Cc2cnn(CC3CC3)c21` (configuration not stated), 35.8 µM.
To `OC[C@H]1N[C@@H](CNCC2CCC2)[C@@H]1c1ccc(C2=CCCCC2)cc1` belongs 12.4 µM and 20.4 µM; to `Cc1ccc(-n2ncc3c(NCc4cccc(Cl)c4)ncnc32)c(C)c1`, 22.3 µM; to `Fc1ccc(CSc2nc(NCc3ccccc3)c3ccccc3n2)cc1`, 17.8 µM.
For the molecule `Cc1cccc(-c2nc(Cn3nnc(-c4nc(-c5cccs5)no4)c3C)c(C)o2)c1`, the AC50 was > 39 µM (inactive).
As for `O=C(CCCCCCNC(=O)c1cnc(N(c2ccccc2)c2ccccc2)nc1)NO`, the figure is 14.8 µM.
As for `COc1ccccc1-c1nc(Cn2nnc(-c3nc(-c4cccc(C(F)(F)F)c4)no3)c2C)c(C)o1`, the figure is > 20 µM (inactive).
As for `C1=CC[C@H]2CN(c3ncnc4[nH]ccc34)C[C@H]2C1`, the figure is 13.1 µM; as for `COc1ccc(-c2nc(N3CCN(C4CCCCC4)CC3)c3ccccc3n2)cc1`, 30.1 µM; as for `O=S(=O)(c1ccccc1)N(CC(F)(F)F)c1ccc(C(O)(C(F)(F)F)C(F)(F)F)cc1`, 19 µM.
For `CN1c2ccc(-c3ccc(C#N)cc3)cc2[C@@H]2[C@@H](CCN2S(=O)(=O)c2ccc(F)cc2)[C@@H]1CO`, the AC50 was 15.8 µM.
As for `CCc1cnc(N2[C@H](C#N)[C@H](c3ccc(C#Cc4ccccc4F)cc3)[C@@H]2CO)s1`, the figure is 19.4 µM; as for `OC[C@@H]1Nc2ccc(C#Cc3ccc(F)cc3)cc2[C@@H]2[C@H]1CCN2Cc1ccc2c(c1)OCO2`, 15.4 µM and 23.4 µM; as for `Cc1cc(C)c(S(=O)(=O)N2CCC3(CC2)NCCN=C3NCc2ccc3c(c2)OCO3)cc1C`, 9.23 µM.
As for `CC(C)(C)CC(C)(C)c1ccc(OCCOCC[N+](C)(C)Cc2ccccc2)cc1`, the figure is 15.6 µM.
As for `COc1ccc(C#Cc2ccc([C@@H]3[C@H](CO)N4C(=O)CN(C(=O)NC(C)C)C[C@@H]34)cc2)cc1`, the figure is 28.3 µM; as for `COc1ccc(-c2nc(CN(c3cccc(OC)c3)S(=O)(=O)c3ccc(C)cc3)c(C)o2)cc1`, 8.49 µM.
Consider `COc1cccc(CN2C[C@@H]3N[C@H](C2)C3c2ccc(-c3ccccc3C)cc2)c1` (some centres not stated), for which the AC50 was 19 µM and 12.1 µM.
As for `OC1(c2cccc(C(F)(F)F)c2)CCN(Cc2ccc3[nH]ccc3c2)CC1`, the figure is 33.5 µM; as for `COc1ccc(-c2nc(CN(c3cccc(OC)c3)S(=O)(=O)c3ccccc3)c(C)o2)cc1`, 9.75 µM.
On to `COc1ccc(-c2nc(NCCCN3CCN(Cc4ccccc4)CC3)c3ccccc3n2)cc1`, for which the AC50 was > 39 µM (inactive).
To `COc1ccc(-c2nc(CSc3nc4c(c(=O)[nH]3)CN(Cc3ccc(F)cc3)CC4)c(C)o2)cc1` belongs 23.2 µM; to `CCCN1CCc2nc(SCc3nc(-c4ccccc4OC)oc3C)[nH]c(=O)c2C1`, > 39 µM (inactive).

The values above are taken from PubChem BioAssay AID1259418 (Broad Institute, 2018).
